Where two headings read alike, the source gives them in different places.
Experiments:
primary rat hepatocytes [1] = experiment: Gluconeogenesis assay (AMPLEX RED glucose in supernatant); type: cell-based; conditions: 4 hours; for Effect (% Change) on glucose levels: insulin 2 nM or glucagon 100 nM; for decreased glucose levels by: insulin 2 nM
A549 cells = conditions: static 2D cultures, cited from earlier work
A549 tumor cells = experiment: Growth of A549 tumor cells in tri-cultures under tumor capillary hemodynamics (PICOGREEN cell number); type: cell-based; conditions: drug at human Cmax, day seven, tri-culture without exogenous ECM, hemodynamic flow and transport, vs vehicle
Protocol: The vehicle control or drug was added to the inflow media for the endothelial cell layer and perfused into the upper volume. Tri-cultures were maintained in the presence of absence of drugs for up to seven days under hemodynamic flow and transport. Cell number was determined at day seven using the QUANT-IT PICOGREEN dsDNA Assay Kit according to the manufacturer's instructions (Life Technologies, Grand Island, N.Y.).

[2] = steady state plasma Cmax at therapeutic doses in mice, read-out: Mouse Cmax, cited from earlier work
[3] = cited from earlier work; for Cmax: steady state plasma Cmax, patients, established therapeutic dosing; for in vivo Cmax level achieved in humans: human
primary rat hepatocytes [4] = experiment: Gene expression of oxidative stress-related genes, MRP3 and MRP4 in rat hepatocytes; type: cell-based; conditions: controlled hemodynamic conditions, in vivo/clinical plasma Cmax concentrations
Protocol: (§1) RT-PCR: Changes in metabolic, toxic, and insulin/glucose/lipid pathway genes were assessed by extracting RNA from hepatocytes from devices run under healthy and steatotic conditions at the end of the culture period (7 or 14 days) and performing RT-PCR on this RNA. The [sequence] were removed from the devices and washed with PBS prior to scraping the cells off the porous membrane. Total RNA was isolated using a [sequence] RNA Mini Kit (a kit for purification of total RNA from cells) and reverse transcribed to cDNA using the ISCRIPT cDNA Synthesis Kit (a cDNA synthesis kit). Primers were designed for the metabolic genes CYP1A1, CYP1A2, CYP3A2, MDR, and GST as well as the insulin/glucose/lipid pathway genes GPAT, ACC1, IRS-2, PPAR-γ, SREBP, ChREBP, LXR, SCD1, CPT1.

primary rat hepatocytes [5] = experiment: CDFDA/CDF bile canalicular imaging (cholestatic changes); type: cell-based; conditions: controlled hemodynamic conditions, 48 hours
Protocol: For imaging of the biliary activity at canalicular junctions, sections of the porous membrane of the TRANSWELL were washed with PBS and incubated with media containing 10 μM carboxy-2,7-dichlorofluorescein diacetate (CDFDA) for 10 minutes. Samples were then washed with PBS and placed on glass slide for confocal imaging.
The hepatocytes were washed with PBS and immediately incubated with the substrate 10 uM carboxy-2,7-dichlorofluorescein diacetate (CDFDA). The cells were imaged by confocal microscopy during a 20-min exposure to the nonfluorescent substrate CDFDA to allow for the hydrolysis of the substrate to the highly fluorescent Mrp-2 substrate carboxy-2,7-dichlorofluorescein (CDF) and its active secretion into the bile canalicular structures.

rat hepatocytes [6] = experiment: In vitro fatty liver model, total triglycerides; type: cell-based; conditions: 1.5 μM, high insulin/glucose fatty liver media, controlled hemodynamics, day 7
Protocol: After 1 hour, the [sequence] were inverted and placed into cell culture dishes, and media was added (9 ml in the lower volume and 6 ml in the upper volume). After 24 hours (i.e., on day 2 of the experiments), the media was changed to maintenance media (the healthy or fatty liver media described above) and the Petri dishes were placed in the cone-and-plate hemodynamic flow device, and controlled hemodynamics were applied to the surface of the porous membrane of the [sequence] in the upper volume. […] The cells were cultured under controlled hemodynamics until day 7, when hepatocytes were examined using the assays described below.
At the end of the treatment period, cells were collected from the porous membranes by scraping with a rubber policeman and PBS, after which they were centrifuged (2,000×g for 10 minutes at 4° C.). The cell pellets were resuspended in 100 μl of cold diluted Standard Diluent from the triglyceride assay kit and sonicated 20 times at one second bursts. The cell suspension was then centrifuged at 10,000×g for 10 minutes at 4° C. The supernatant was removed and used for the assay as per the manufacturer's protocol and normalized to protein content from the same samples. […]

rat hepatocytes [7] = experiment: In vitro fatty liver model, metabolic gene expression (RT-PCR); type: cell-based; conditions: 1.5 μM, high insulin/glucose fatty liver media, controlled hemodynamics, day 7
Protocol: as §1
After 1 hour, the [sequence] were inverted and placed into cell culture dishes, and media was added (9 ml in the lower volume and 6 ml in the upper volume). After 24 hours (i.e., on day 2 of the experiments), the media was changed to maintenance media (the healthy or fatty liver media described above) and the Petri dishes were placed in the cone-and-plate hemodynamic flow device, and controlled hemodynamics were applied to the surface of the porous membrane of the [sequence] in the upper volume. […]

primary rat hepatocytes [8] = experiment: Toxicity of inducer concentration to rat hepatocytes under controlled flow; type: cell-based; conditions: 50 μM, concentration recommended for inducing static cultures
Protocol: As a result the concentration of the dexamethasone was decreased to 1 μg/ml in order to get an inductive response, a level that correlates well with plasma concentrations seen in vivo in rats.

cytochrome p450 3A = experiment: Cytochrome p450 3A activity (P450-GLO) in rat hepatocytes after inducer; type: in vitro ADME; conditions: controlled hemodynamics, dexamethasone 02.5 μM, 48 hours, day 7
Protocol: (§2) Cytochrome Activity Assays: Hepatocytes were cultured in the cone-and-plate devices under static or controlled hemodynamic conditions for five days, and then treated with 0.1% dimethyl sulfoxide (DMSO) or known inducers of cytocrhome enzymesβ-methylcholanthrene and dexamethasone) for 48 hours. Porous membrane segments roughly 2 cm^2 in area were excised and transferred to standard 24-well plates alongside corresponding static cultures. The cells were incubated with 500 μl of hepatocyte media containing substrates from commercially available P450-GLO kits (kits for luminescent cytochrome p450 assays) at the manufacturer-recommended concentrations. After 4 hours, the media was transferred to 96-well plates and assayed for luminescent metabolites to reflect cytochrome p450 activity as per the manufacturer protocol.
(§3) To validate that the increase in metabolic genes and proteins translated to changes in metabolic activity, primary rat hepatocytes were cultured as described earlier in the cone-and-plate devices under controlled hemodynamics (0.6 dynes/cm^2) and in static collagen gel cultures. […]

[9] = system: primary human hepatocytes; conditions: 72 h
Protocol: MTT Assay: To assess toxicity responses of human hepatocytes, the cells were plated and cultured in the cone-and-plate devices under hemodynamic conditions using the operating conditions described above or were cultured under static conditions (controls) for 7 days before being exposed to either 0.1% DMSO or known toxic drug chlorpromazine (0.1 μM, 1 μM and 10 μM) for 72 hours. Hepatocytes were then incubated with medium containing lmg/ml of MTT reagent (thiazolyl blue tetrazolium bromide) for 1 hour, following which the cells were lysed in DMSO to release the formazan blue dye formed. The solution was transferred to a 96 well plate and the absorbance was read at 595 nm.

primary rat hepatocytes [10] = conditions: 4 h, 1 μM
Protocol: The hepatocytes were then washed with PBS and incubated with serum free hepatocyte medium with or without known toxic drug chlorpromazine (CPZ) at two different concentrations (1 μM and 10 μM) for 4 hours. Supernatants from the cells were collected and microRNA extraction was performed using the [sequence] serum/plasma kit (a kit for extracting microRNA, Qiagen). The cDNA was prepared by using the [sequence] RT kit (a kit for preparing cDNA, Qiagen) and samples quantified using the [sequence] SYBR GREEN PCR kit (a kit for quantifying cDNA, Qiagen), following the manufacturer's instructions.
Primary rat hepatocytes isolated and plated as described above were cultured in the cone-and-plate devices under controlled hemodynamic conditions or were cultured under static conditions (controls) for 7 days. The hepatocytes were washed with PBS and immediately incubated with either vehicle (distilled water) or chlorpromazine (1 μM) for 4 hours.

[11] = system: primary human hepatocytes; conditions: 72 h, 1 μM
Protocol: RT-PCR: Changes in metabolic, toxic, and insulin/glucose/lipid pathway genes were assessed by extracting RNA from hepatocytes from devices run under healthy and steatotic conditions at the end of the culture period (7 or 14 days) and performing RT-PCR on this RNA. The […] were removed from the devices and washed with PBS prior to scraping the cells off the porous membrane. Total RNA was isolated using a […] RNA Mini Kit (a kit for purification of total RNA from cells) and reverse transcribed to cDNA using the ISCRIPT cDNA Synthesis Kit (a cDNA synthesis kit). Primers were designed for the metabolic genes CYP1A1, CYP1A2, CYP3A2, MDR, and GST as well as the insulin/glucose/lipid pathway genes GPAT, ACC1, IRS-2, PPAR-γ, SREBP, ChREBP, LXR, SCD1, CPT1. Primer sequences are shown below in Table 3:
RNA expression was analyzed by real-time RT-PCR using IQ SYBR Green Supermix (a PCR reagent mixture for RT-PCR) and a CFX96 Real-Time System with C1000 Thermal Cycler (an RT-PCR detection system and thermal cycler). RNA data were normalized to endogenous expression of β2-microglobulin and reported as a relative quantity compared to healthy cultures.
Human genes assessed for metabolism and toxicity experiments included CYP1A1. CYP2A6, CYP2B6, CYP2C9, CYP2D6, CYP3A4, CYP3A5, GSTA1, UGT1A1, GSR, SORD, TXNRD1, and APEX1.
Cryopreserved primary human hepatocytes thawed and plated as described above were cultured in the cone-and-plate devices under controlled hemodynamics or were cultured under static conditions (controls) for 7 days before being exposed to different concentrations of chlorpromazine (0.1 μM, 1 μM, and 10 μM) or vehicle control for 72 hours. Live-dead staining was performed on the hepatocytes with ethidium-calcein stain. Hepatocytes were also incubated with MTT reagent for 1 hour to assess viability. RNA was extracted from additional segments and RT-PCR was performed to assess selected toxicity and metabolic genes.

cytochrome p450 1A/1B = experiment: Cytochrome p450 1A/1B activity (P450-GLO) in rat hepatocytes after inducer; type: in vitro ADME; conditions: controlled hemodynamics, 3-MC 0.1 μM, 48 hours, day 7
Protocol: as §2, §3

[12] = No substrate, controlled hemodynamics
[13] = substrate Glycerol 2 mM, controlled hemodynamics
[14] = substrate Lactate/Pyruvate (20 mM/2 mM), controlled hemodynamics

With `OCC(O)CO` [Glycerol, glycerol] the “glucose produced by the hepatocytes increased in the presence of the substrate” value (primary rat hepatocytes [1]; glycerol 2 mM, controlled hemodynamics) was 67%.

In the case of `NC1(c2ccc(-c3nc4ccn5c(=O)[nH]nc5c4cc3-c3ccccc3)cc2)CCC1` [MK2206], the IC50 (A549 cells) is listed as 3 µM, the “inhibited A549 growth” value (A549 tumor cells) is listed as 44% and the Cmax [2] is listed as 540 nM. The Cmax [3] was 160 nM.

In the case of `C#Cc1cccc(Nc2ncnc3cc(OCCOC)c(OCCOC)cc23)c1` [erlotinib], the “in vivo Cmax level achieved in humans” value [3] is listed as 1000 ng/mL.

For `Cc1c(C)c2c(c(C)c1O)CCC(C)(COc1ccc(CC3SC(=O)NC3=O)cc1)O2` (centres unmarked) [troglitazone], the “gene expression associated with toxic response” value (primary rat hepatocytes [4]) was “upregulation of oxidative stress-related genes and compensatory upregulation of MRP3 and MRP4 genes”, the “changes in bile canalicular pattern” value (primary rat hepatocytes [5]; 4 uM) was “changes in the canalicular pattern with visibly dilated canalicular structures” and the “changes in bile canalicular pattern” value (primary rat hepatocytes [5]; 40 uM) was “much more prominent and extensive”.

For `CCc1ccc(CCOc2ccc(CC3SC(=O)NC3=O)cc2)nc1` (centres unmarked) [pioglitazone], the “total triglyceride content of hepatocytes” value (rat hepatocytes [6]) was “reduced total triglyceride content” and the “expression of metabolic genes such as Cyp3A2” value (rat hepatocytes [7]) was “restored the expression of metabolic genes”.

With glucagon the “Effect (% Change) on glucose levels” value (primary rat hepatocytes [1]; [12]) was “+51%”, the “increased glucose levels by” value (primary rat hepatocytes [1]; absence of a substrate, glucagon 100 nM) was 51% and the “Effect (% Change) on glucose levels” value (primary rat hepatocytes [1]; [13]) was “+15%”. For the same compound, the “Effect (% Change) on glucose levels” value (primary rat hepatocytes [1]; [14]) was “+80%”, the “increased glucose levels by further” value (primary rat hepatocytes [1]; substrate glycerol, glucagon 100 nM) was 15% and the “increased glucose produced by” value (primary rat hepatocytes [1]; substrates lactate and pyruvate, glucagon 100 nM) was 80%.

In the case of `C[C@@H]1C[C@H]2[C@@H]3CCC4=CC(=O)C=C[C@]4(C)[C@@]3(F)[C@@H](O)C[C@]2(C)[C@@]1(O)C(=O)CO` [Dexamethasone, dexamethasone], the “toxicity in the controlled flow system” value (primary rat hepatocytes [8]) is reported as “toxic” and the “3A response (cytochrome p450 activity normalized to ATP)” value (cytochrome p450 3A) is reported as 57.53.

In the case of insulin, the “Effect (% Change) on glucose levels” value (primary rat hepatocytes [1]; [12]) is reported as −27%, the “decreased glucose levels by” value (primary rat hepatocytes [1]; absence of a substrate) is reported as 27% and the “Effect (% Change) on glucose levels” value (primary rat hepatocytes [1]; [13]) is reported as −38%. For the same compound, the “Effect (% Change) on glucose levels” value (primary rat hepatocytes [1]; [14]) was −25%, the “decreased glucose levels by” value (primary rat hepatocytes [1]; substrate glycerol) was 38% and the “decreased glucose levels by” value (primary rat hepatocytes [1]; substrates lactate and pyruvate) was 25%.

For `CN(C)CCCN1c2ccccc2Sc2ccc(Cl)cc21` [chlorpromazine], the toxicity ([9]; 1 μM) was 30.3%, the toxicity ([9]; 10 μM) was 46.4% and the “miRNA 122 levels in the supernatants compared to vehicle controls” value (primary rat hepatocytes [10]) was “did not cause any change in miRNA 122 levels”. For the same compound, the “miRNA 122 released into supernatant, over vehicle controls” value (primary rat hepatocytes [10]) was 6 fold, the “upregulation of APEX nuclease (multifunctional DNA repair enzyme)” value [11] was 2.8 fold and the “upregulation of glutathione reductase (GSR)” value [11] was 8.3 fold. For the same compound, the “upregulation of sorbitol dehydrogenase (SORD)” value [11] was 6.9 fold and the “upregulation of thioredoxin reductase 1 (TXNRD1)” value [11] was 5.5 fold.

For `N.N.[Cl][Pt][Cl]` [Cisplatin, cisplatin], the IC50 (A549 cells; listed as cisplatin) is given as > 6 µM, the IC50 (A549 cells) is given as > 6 µM and the “inhibited A549 growth” value (A549 tumor cells) is given as 48%. The Cmax ([2]; listed as cisplatin) was > 10000 nM, the Cmax [2] was > 10000 nM and the Cmax [3] was 3000 nM.

For `N.N.O=C([O-])C1(C(=O)[O-])CCC1.[Pt+2]` [carboplatin], the “in vivo Cmax level achieved in humans” value [3] is listed as 37000 ng/mL.

For `Cc1ccc2cc3c(ccc4ccccc43)c3c2c1CC3` [3-MC, 3-Methyl Cholanthrene], the “1A/1B response (cytochrome p450 activity normalized to ATP)” value (cytochrome p450 1A/1B) was 133.06.

In the case of `Cn1cnc2c(F)c(Nc3ccc(Br)cc3Cl)c(C(=O)NOCCO)cc21` [AZD6244/Selumetinib, Selumetinib], the IC50 (A549 cells) is listed as 5 µM, the “inhibited A549 growth” value (A549 tumor cells) is listed as 78% and the Cmax [3] is listed as 1400 nM.

From US11008549B2, “In vitro model for a tumor microenvironment” (HemoShear, LLC, priority 2013, dated 2021)
